These results are taken from patent US8722096B2, “Lipoic acid pellets” (Aptalis Pharma Limited, priority 2006, dated 2014).

For series [1] the following is noted: gives polymerization products; cited from earlier work.
Series [2] is described as follows: Stability of lipoic acid in ethanol/phosphate buffer solutions. It counts as physicochemical. The settings on record: ethanol/phosphate buffer 50 mM pH 6.8, 80:20 to 90:10; room temperature, protected from light. The method, then:
In case the application in the solvent form is chosen, for example ethanol, acetone or other solvents or their mixtures thereof can be used. Also other mixtures of organic solvents with buffer solutions can be used, for example mixtures of ethanol and phosphate buffers. These mixtures can be composed by ethanol/phosphate buffer 50 mM pH:6.8 in proportions ranging from 80:20 to 90:10. In these solutions, lipoic acid is stable for at least 24 hours if stored at room temperature and protected from light. Lipoic acid is dissolved in these solvents at an optimal concentration ranging from 20 to 30% w/w, depending on the type of solvent or solvent mixture used. Application of the lipoic acid solution on the core is performed by wetting and subsequent evaporation of the solvent in presence of air at a temperature lower than 40° C., preferably ranging between 36 and 38° C. This procedure yields active cores with a low content of residual solvents.

Consider `O=C(O)CCCCC1CCSS1` (centres unmarked) [lipoic acid, 1,2-dithiolan-3-pentanoic acid], for which the “stability under environmental conditions” value in series [1] is on record as “unstable under various environmental conditions”. In addition, the “time for which lipoic acid is stable in solution” value in series [2] is “at least 24 hours”.
